Data: article PMC10327491 (Nature microbiology, 2022)

Target: T1, BtSULT (Bacteroides thetaiotaomicron, UniProt Q8AAP8)
T1 sequence (Q8AAP8 1-368): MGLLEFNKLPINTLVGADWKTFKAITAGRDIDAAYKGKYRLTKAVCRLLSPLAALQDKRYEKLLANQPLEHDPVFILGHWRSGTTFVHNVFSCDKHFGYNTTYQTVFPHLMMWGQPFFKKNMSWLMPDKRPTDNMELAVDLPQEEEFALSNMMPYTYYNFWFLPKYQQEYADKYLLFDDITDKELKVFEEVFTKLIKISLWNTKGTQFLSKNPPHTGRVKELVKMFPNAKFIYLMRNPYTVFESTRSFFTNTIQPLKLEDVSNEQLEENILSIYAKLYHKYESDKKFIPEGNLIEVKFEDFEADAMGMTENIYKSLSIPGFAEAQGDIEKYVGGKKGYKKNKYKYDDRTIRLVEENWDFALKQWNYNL
Test: UPLC-MS of cholesterol sulfate formation
Type: biochemical
Settings: 100 uM PAPS, 50 uM cholesterol acceptor, pH 7, 37 °C; sulfonate donor

Nc1ncnc2c1ncn2[C@@H]1O[C@H](COP(=O)(O)OS(=O)(=O)O)[C@@H](OP(=O)(O)O)[C@H]1O [adenosine 3'-phosphate-5'-phosphosulfate]
UPLC-MS of cholesterol sulfate formation: BtSULT encodes a sulfotransferase that utilizes PAPS to sulfonate Ch
